According to BigSolDB 2.1:

CCC(C)n1ncn(-c2ccc(N3CCN(c4ccc(OC[C@H]5CO[C@](Cn6cncn6)(c6ccc(Cl)cc6Cl)O5)cc4)CC3)cc2)c1=O (mixture of isomers)
solubility (mole fraction)
Conditions	in chloroform	in dichloromethane	in ethanol	in methanol	in n-butanol	in n-propanol
288.15 K	0.0459	0.0287	1.07e-05	2.35e-05	1.43e-05	1.24e-05
293.15 K	0.048	0.0306	1.43e-05	2.97e-05	1.82e-05	1.61e-05
298.15 K	0.0503	0.0326	1.89e-05	3.78e-05	2.28e-05	2.09e-05
303.15 K	0.0525	0.0347	2.44e-05	4.71e-05	2.87e-05	2.68e-05
308.15 K	0.0548	0.0369	3.18e-05	5.88e-05	3.52e-05	3.36e-05
